As usually defined, the melting point is the temperature of the solid-liquid transition. Regarding `CCOCCCNS(=O)(=O)c1sc(N(CCCOCC)C(=O)Cc2ccc(-c3cccc(OC)c3)cc2)nc1C`, the melting point fell in the range of 74 to 75 °C.

For the molecule `Cc1nc(N(C)C(=O)Cc2ccc(-c3cccc([N+](=O)[O-])c3)cc2)sc1S(N)(=O)=O`, the melting point was 202 °C.

On to `CNS(=O)(=O)c1sc(N(C)C(=O)Cc2ccc(-c3cccc(N)c3)cc2)nc1C`, for which the melting point was 193 °C.

Consider `Cc1nc(N(C)C(=O)Cc2ccc(-c3ncccc3N)cc2)sc1S(N)(=O)=O.Cl`, for which the melting point is 264 °C.

In the case of `CNS(=O)(=O)c1sc(N(CCNC(=O)OC(C)(C)C)C(=O)Cc2ccc(-c3ccccc3)cc2)nc1C`, the melting point is 188 °C.

On to `CCOc1ccc(CC(=O)N(C)c2nc(C)c(S(=O)(=O)NC)s2)cc1`, for which the melting point is 157 °C.

With `CCCN(C(=O)Cc1ccc(-c2ccccc2)cc1)c1nc(C)c(S(=O)(=O)NCC(F)(F)F)s1`, the melting point was 108 °C.

As to `CCOCCCNS(=O)(=O)c1sc(N(C)C(=O)Cc2ccc(-c3cccc(OC)c3)cc2)nc1C`, the melting point fell in the range of 125 to 127 °C.

Molecule `Cc1nc(N(C)C(=O)Cc2ccc(-c3ccccc3)cc2)sc1S(=O)(=O)NCCO` returned a melting point of 167 °C.

The molecule `Cc1nc(N(C)C(=O)Cc2ccc(-c3cncnc3)cc2)sc1S(N)(=O)=O` came in with a melting point of 234 °C.

`CNS(=O)(=O)c1sc(N(C)C(=O)Cc2ccc(-c3ncccc3N)cc2)nc1C` returned a melting point of 80 °C.

Molecule `Cc1ccncc1-c1ccc(CC(=O)N(C)c2nc(C)c(S(N)(=O)=O)s2)cc1` displayed a melting point of 204 °C.

`CNS(=O)(=O)c1sc(N(C)C(=O)Cc2ccc(-c3ccc(OC(F)(F)F)cc3)cc2)nc1C` registered a melting point of 109 °C.

For the molecule `Cc1nc(N(C(=O)Cc2ccc(-c3ccccc3)cc2)C2CC2)sc1S(N)(=O)=O`, the melting point came to 179 °C.

The molecule `COc1ccc(F)cc1-c1ccc(CC(=O)N(CC2CCCO2)c2nc(C)c(S(N)(=O)=O)s2)cc1` (stereo not shown) came in with a melting point of 79 °C.

Turning to `Cc1nc(N(C)C(=O)Cc2ccc(-c3cccc(N4CCCC4)c3)cc2)sc1S(N)(=O)=O`, the melting point stood at 152 °C.

With `CCOc1ccc(CC(=O)N(C)c2nc(C)c(S(N)(=O)=O)s2)cc1`, the melting point was found to be 168 °C.

As to `Cc1nc(N(C)C(=O)Cc2ccc(-c3ccccc3)cc2F)sc1S(N)(=O)=O`, the melting point was 130 °C.

`CNS(=O)(=O)c1sc(N(C)C(=O)Cc2ccc(-c3cccc(C=O)c3)cc2)nc1C` returned a melting point of 192 °C.

On to `CNS(=O)(=O)c1sc(N(C)C(=O)Cc2ccc(-c3cccc(OC(F)(F)F)c3)cc2)nc1C`, for which the melting point was determined as 156 °C.

In the case of `CNS(=O)(=O)c1sc(N(C)C(=O)Cc2ccc(-c3ccc(Cl)cc3)cc2)nc1C`, the melting point came out at 186 °C.

On to `CNS(=O)(=O)c1sc(N(C(=O)Cc2ccc(-c3ccccc3)cc2)C2CC2)nc1C`, for which the melting point is 202 °C.

On to `Cc1nc(N(C)C(=O)Cc2ccc(-c3cccc(N)c3)cc2)sc1S(N)(=O)=O`, for which the melting point was determined as 209 °C.

`Cc1nc(N(C)C(=O)Cc2ccc(-c3cccnc3)cc2)sc1S(N)(=O)=O` returned a melting point of 208 °C.

Take `CNS(=O)(=O)c1sc(NC(=O)Cc2ccc(-c3ccccc3)cc2)nc1C`: the melting point was found to be 133 °C.

Turning to `Cc1nc(N(CC2CCCO2)C(=O)Cc2ccc(-c3ccccc3)cc2)sc1S(N)(=O)=O` (stereo not shown), the melting point came to 159 °C.

For `Cc1nc(N(C)C(=O)Cc2ccc(-c3cccc(O[Si](C)(C)C(C)(C)C)c3)cc2)sc1S(N)(=O)=O`, the melting point came out at 161 °C.

`CNS(=O)(=O)c1sc(N(C)C(=O)Cc2ccc(-c3ccccc3OC)cc2)nc1C` yielded a melting point of 192 °C.

`Cc1nc(N(C)C(=O)Cc2ccc(-c3ccncc3F)cc2)sc1S(N)(=O)=O`: the melting point was 223 °C.

Molecule `Cc1nc(N(C)C(=O)Cc2ccc(-c3cccc(F)c3F)cc2)sc1S(N)(=O)=O` yielded a melting point of 202 °C.

`CNS(=O)(=O)c1sc(N(C)C(=O)Cc2ccc(-c3ccccc3C(F)(F)F)cc2)nc1C` had a melting point of 202 °C.

Molecule `CNS(=O)(=O)c1sc(N(C)C(=O)Cc2ccc(-c3ncccc3C(F)(F)F)cc2)nc1C` had a melting point of 180 °C.

Take `CCN(C(=O)Cc1ccc(-c2ccccc2)cc1)c1nc(C)c(S(=O)(=O)NCC(F)(F)F)s1`: the melting point is 152 °C.

Take `CNS(=O)(=O)c1sc(N(C)C(=O)Cc2ccc(-c3ccccc3C)cc2)nc1C`: the melting point amounted to 167 °C.

Consider `Cc1nc(N(C)C(=O)Cc2ccc(-c3ccccc3)cc2)sc1S(=O)(=O)NCCNC(=O)OC(C)(C)C`, for which the melting point was 150 °C.

Molecule `Cc1nc(N(C)C(=O)Cc2ccc(-c3ccccc3)cc2)sc1S(=O)(=O)NCCN` registered a melting point of 138 °C.

With `Cc1nc(N(C)C(=O)Cc2ccc(-c3ccccn3)cc2)sc1S(=O)(=O)NCCO`, the melting point is 175 °C.

As to `Cc1nc(N(C)C(=O)Cc2ccc(-c3ccccc3)cc2)sc1S(=O)(=O)NCC(F)(F)F`, the melting point amounted to 216 °C.

The molecule `CCOCCNS(=O)(=O)c1sc(N(C)C(=O)Cc2ccc(OCC)cc2)nc1C` had a melting point of 125 to 127 °C.

As for `CNS(=O)(=O)c1sc(N(C)C(=O)Cc2ccc(-c3cc(C)cc(C)c3)cc2)nc1C`, the melting point was found to be 170 °C.

Regarding `Cc1nc(N(C)C(=O)Cc2ccc(-c3cccnc3)cc2)sc1S(N)(=O)=O.Cl`, the melting point is 177 °C.

`Cc1nc(N(CCc2ccccn2)C(=O)Cc2ccc(-c3ccccc3)cc2)sc1S(N)(=O)=O` registered a melting point of 136 °C.

In turn, `COCCN(C(=O)Cc1ccc(-c2cc(F)ccc2OC)cc1)c1nc(C)c(S(N)(=O)=O)s1` returned a melting point of 199 °C.

`Cc1nc(N(C)C(=O)Cc2ccc(-c3ccccc3C(F)(F)F)cc2)sc1S(=O)(=O)NCCNC(=O)OC(C)(C)C` showed a melting point of 156 °C.

The molecule `Cc1nc(N(C)C(=O)Cc2ccc(-c3ccccc3)cc2)sc1S(=O)(=O)NCCOC(=O)CNC(=O)OC(C)(C)C` registered a melting point of 159 °C.

`CNS(=O)(=O)c1sc(N(C)C(=O)Cc2ccc(-c3ccccc3)cc2)nc1C` showed a melting point of 180 °C.

The molecule `CNS(=O)(=O)c1sc(N(C)C(=O)Cc2ccc(-c3ncccc3O)cc2)nc1C` gave a melting point of 225 °C.

Consider `CCOc1ccc(CC(=O)N(CCN(C)C)c2nc(C)c(S(=O)(=O)NC)s2)cc1`, for which the melting point was 153 °C.

For the molecule `Cc1nc(N(Cc2ccccn2)C(=O)Cc2ccc(-c3ccccc3)cc2)sc1S(N)(=O)=O`, the melting point stood at 205 °C.

In turn, `Cc1nc(N(Cc2ccncc2)C(=O)Cc2ccc(-c3ccccc3)cc2)sc1S(N)(=O)=O` displayed a melting point of 130 °C.

`CNS(=O)(=O)c1sc(N(C)C(=O)Cc2ccc(-c3cccc4c3oc3ccccc34)cc2)nc1C` returned a melting point of 109 °C.

The molecule `CNS(=O)(=O)c1sc(N(C)C(=O)Cc2ccc(-c3cccnc3)cc2)nc1C` returned a melting point of 200 °C.

`CNS(=O)(=O)c1sc(N(CCCN2CCCC2=O)C(=O)Cc2ccc(-c3ccccc3)cc2)nc1C` had a melting point of 158 °C.

As for `Cc1nc(N(CC2CC2)C(=O)Cc2ccc(-c3ccccc3)cc2)sc1S(N)(=O)=O`, the melting point came out at 161 °C.

In turn, `Cc1nc(N(C)C(=O)Cc2ccc(-c3ccccc3)cc2)sc1S(=O)(=O)N(C)C` gave a melting point of 184 °C.

For `CCOCCCNS(=O)(=O)c1sc(N(C)C(=O)Cc2ccc(-c3ccccc3)cc2)nc1C`, the melting point lay in the range of 139 to 140 °C.

Regarding `CNS(=O)(=O)c1sc(N(C)C(=O)Cc2ccc(-c3cccc(Cl)c3)cc2)nc1C`, the melting point came out at 187 °C.

Turning to `CNS(=O)(=O)c1sc(N(C)C(=O)Cc2ccc(-c3ccccc3Cl)cc2)nc1C`, the melting point was 128 °C.

Turning to `C=CCN(C(=O)Cc1ccc(-c2ccccc2)cc1)c1nc(C)c(S(N)(=O)=O)s1`, the melting point is 117 °C.

Turning to `CNS(=O)(=O)c1sc(N(C)C(=O)Cc2ccc(-c3cccc(F)c3)cc2)nc1C`, the melting point was found to be 190 °C.

For `CNS(=O)(=O)c1sc(N(C)C(=O)Cc2ccc(-c3cccc([N+](=O)[O-])c3)cc2)nc1C`, the melting point worked out at 201 °C.

For the molecule `CNS(=O)(=O)c1sc(N(C)C(=O)Cc2ccc(-c3cccc(OC)c3)cc2)nc1C`, the melting point turned out to be 154 °C.

The molecule `Cc1nc(N(C)C(=O)Cc2ccc(-c3ncccc3C(F)(F)F)cc2)sc1S(N)(=O)=O.Cl` came in with a melting point of 225 °C.

`Cc1nc(N(C)C(=O)Cc2ccc(-c3ccccn3)cc2)sc1S(=O)(=O)NCCO[Si](C)(C)C(C)(C)C` returned a melting point of 130 °C.

The molecule `CCOc1ccc(CC(=O)N(CCOC)c2nc(C)c(S(N)(=O)=O)s2)cc1` came in with a melting point of 165 °C.

Regarding `COCCCNS(=O)(=O)c1sc(N(C)C(=O)Cc2ccc(-c3ccccc3)cc2)nc1C`, the melting point lay in the range of 142 to 143 °C.

The molecule `CNS(=O)(=O)c1sc(N(Cc2cccnc2)C(=O)Cc2ccc(-c3ccccc3)cc2)nc1C` returned a melting point of 161 °C.

Consider `Cc1nc(N(C)C(=O)Cc2ccc(-c3ccccc3)cc2)sc1S(=O)(=O)NCCN(C)C(=O)OC(C)(C)C`, for which the melting point was 175 °C.

For the molecule `CNS(=O)(=O)c1sc(N(C)C(=O)Cc2ccc(Br)cc2)nc1C`, the melting point is 168 °C.

In turn, `Cc1nc(N(CCN2CCCC2=O)C(=O)Cc2ccc(-c3ccccc3)cc2)sc1S(N)(=O)=O` registered a melting point of 202 °C.

For the molecule `CCCN(C(=O)Cc1ccc(-c2ccccc2)cc1)c1nc(C)c(S(N)(=O)=O)s1`, the melting point amounted to 154 °C.

As for `CCOCCNS(=O)(=O)c1sc(N(C)C(=O)Cc2ccc(-c3ccccc3)cc2)nc1C`, the melting point was in the range of 105 to 106 °C.

Turning to `CCOCCOCCOCCN(C(=O)Cc1ccc(-c2ccccc2)cc1)c1nc(C)c(S(N)(=O)=O)s1`, the melting point came to 94 °C.

`CNS(=O)(=O)c1sc(N(C)C(=O)Cc2ccc(-c3cnccn3)cc2)nc1C` displayed a melting point of 187 °C.

Consider `CONS(=O)(=O)c1sc(N(C)C(=O)Cc2ccc(-c3ccccc3)cc2)nc1C`, for which the melting point is 129 °C.

Take `CCOc1ccc(CC(=O)N(Cc2ccncc2)c2nc(C)c(S(N)(=O)=O)s2)cc1`: the melting point is 122 °C.

`Cc1nc(N(C)C(=O)Cc2ccc(-c3cncc(C#N)c3)cc2)sc1S(N)(=O)=O`: the melting point is 231 °C.

Molecule `CNS(=O)(=O)c1sc(N(C)C(=O)Cc2ccc(-c3cnccc3C)cc2)nc1C` returned a melting point of 113 °C.

For `Cc1nc(N(C)C(=O)Cc2ccc(-c3c(F)cccc3F)cc2)sc1S(N)(=O)=O`, the melting point came to 215 °C.

Source of the values: patent US7105553B2, “Thiazolyl amide derivatives” (Bayer Aktiengesellschaft, priority 1999, dated 2006).
